Experimental data as given in patent US20070259879A1, “Piperazine and piperidine biaryl derivatives” (priority 2006, published 2007).
pIC50: −log10 of the molar value.

The compounds below were run on HIV-1 pseudotyped virus (assay: HIV-1 pseudotyped virus assay (luciferase reporter gene, single cycle of infection)). Conditions: Human immunodeficiency virus 1, CCR5, 72 h, read-out: Activity (antiviral activity, IC50).
Format: cell-based
Text: In this example are illustrated experimental procedures for determining biological activity, such as antiviral activity. For determining biological activity, an HIV-1 infection assay was used to determine the antiviral potency for compounds of the present invention.
For determining biological activity, an HIV-1 pseudotyped virus assay was used to determine the respective antiviral potencies of each compound tested in the assay for comparison. The pseudotyped assay scores for a reduction in infection as indicated by decreased signal from the reporter gene encoding a luciferase enzyme (“reporter gene”). The assay employs cell lines expressing CD4 and either of the primary chemokine receptors (CCR5 or CXCR4) that HIV uses as a co-receptor (“target cells”). Pseudotyped virus was prepared by co-transfection of 293T cells with: 1) a plasmid construct carrying the HIV-1 envelope of choice, in combination with 2) a pseudotyped virus backbone construct in which (a) envelope expression has been abrogated due to a frameshift in the envelope sequence, and (b) the reporter gene replaces nef. Expression of HIV-1 envelope on 293T packaging cells results in the production of a pseudotyped virus carrying the reporter gene that is capable of a single cycle of infection.
The compounds of the present invention being tested for antiviral activity were serially diluted and dose responses determined in duplicate in two separate experiments. The compounds to be tested were added directly to the plated, target cells, followed by the addition of pseudotyped virus described above. The cells were cultured for three days prior harvest. Media and compound were removed, the cell monolayer was washed, lysed by detergent, and then frozen at −80 degrees C. for a minimum of 30 minutes. Following thawing and acclimation to room temperature, luciferase production was quatified by injecting 100 […]I of a substrate (of the enzyme encoded by the reporter gene) into each well followed by detecting the signal (light emitted from the interaction between the enzyme and substrate) after 5 seconds. In the pseudotyped assay, a 50% reduction in signal is significant, and provides the primary cutoff value for assessing antiviral activity (“IC50” is defined as the dilution resulting in a 50% reduction in enzymatic activity as interpolated from a titration curve). Representative compounds according to the present invention, and their antiviral activity, are illustrated in Table 3.

Compound	pIC50
C[C@@H]1CN(C(=O)c2ccccc2)CCN1C(=O)C(=O)c1ccc(-c2cnco2)cc1 [Example 101, 1-((R)-4-Benzoyl-2-methyl-piperazin-1-yl)-2-(4-oxazol-5-yl-phenyl)-ethane-1,2-dione]	> 5.30
Cc1cc(-c2ccc(C(=O)C(=O)N3CCN(C(=O)c4ccccc4)C[C@H]3C)cc2)on1 [Example 102, 1-((R)-4-Benzoyl-2-methyl-piperazin-1-yl)-2-[4-(3-methyl-isoxazol-5-yl)-phenyl]-ethane-1,2-dione]	> 5.30
C[C@@H]1CN(C(=O)c2ccccc2)CCN1C(=O)C(=O)c1ccc(-c2nccs2)cc1 [Example 103, 1-((R)-4-Benzoyl-2-methyl-piperazin-1-yl)-2-(4-thiazol-2-yl-phenyl)-ethane-1,2-dione]	> 5.30
Cc1nc(-c2ccc(C(=O)C(=O)N3CCN(C(=O)c4ccccc4)C[C@H]3C)cc2)cs1 [Example 104, 1-((R)-4-Benzoyl-2-methyl-piperazin-1-yl)-2-[4-(2-methyl-thiazol-4-yl)-phenyl]-ethane-1,2-dione]	< 5.30
C[C@@H]1CN(C(=O)c2ccccc2)CCN1C(=O)C(=O)c1ccc(-c2nnn(C)n2)cc1 [Example 105, 1-((R)-4-Benzoyl-2-methyl-piperazin-1-yl)-2-[4-(2-methyl-2H-tetrazol-5-yl)-phenyl]-ethane-1,2-dione]	> 5.30
CO/N=C(\c1ccccc1)N1CCN(C(=O)C(=O)c2ccc(-c3cnco3)cc2)[C@H](C)C1 [Example 106, 1-((R)-4-{[Methoxyimino]-phenyl-methyl}-2-methyl-piperazin-1-yl)-2-(4-oxazol-5-yl-phenyl)-ethane-1,2-dione]	> 5.30
Cc1noc(-c2ccc(S(=O)(=O)N3CCN(C(=O)c4ccccc4)CC3C)s2)n1 (centres unmarked) [Example 107, {3-Methyl-4-[5-(3-methyl-[1,2,4]oxadiazol-5-yl)-thiophene-2-sulfonyl]-piperazin-1-yl}-phenyl-methanone]	< 5.30
CON(C)C(=O)c1ccc(S(=O)(=O)N2CCN(C(=O)c3ccccc3)CC2C)s1 (centres unmarked) [Example 108, 5-(4-Benzoyl-2-methyl-piperazine-1-sulfonyl)-thiophene-2-carboxylic acid methoxy-methyl-amide]	> 5.30
CC1CN(C(=O)c2ccccc2)CCN1S(=O)(=O)c1ccc(-n2cncn2)s1 (centres unmarked) [Example 109, [3-Methyl-4-(5-[1,2,4]triazol-1-yl-thiophene-2-sulfonyl)-piperazin-1-yl]-phenyl-methanone]	< 5.30
CC1CN(C(=O)c2ccccc2)CCN1S(=O)(=O)c1ccc(C(=O)c2ccco2)s1 (centres unmarked) [Example 110, {4-[5-(Furan-2-carbonyl)-thiophene-2-sulfonyl]-3-methyl-piperazin-1-yl}-phenylmethanone]	< 5.30
CC1CN(C(=O)c2ccccc2)CCN1S(=O)(=O)c1ccc(C(=O)c2cnc[nH]2)s1 (centres unmarked) [Example 111, {4-[5-(3H-Imidazole-4-carbonyl)-thiophene-2-sulfonyl]-3-methyl-piperazin-1-yl}-phenyl-methanone]	< 5.30
CC1CN(C(=O)c2ccccc2)CCN1S(=O)(=O)c1ccc(C(=O)c2ccon2)s1 (centres unmarked) [Example 112, {4-[5-(Isoxazole-3-carbonyl)-thiophene-2-sulfonyl]-3-methyl-piperazin-1-yl}-phenyl-methanone]	< 5.30
CC1CN(C(=O)c2ccccc2)CCN1S(=O)(=O)c1cccc(-n2ccnn2)c1 (centres unmarked) [Example 113, [3-Methyl-4-(3-[1,2,3]triazol-1-yl-benzenesulfonyl)-piperazin-1-yl]-phenyl-methanone]	< 5.30
CC1CN(C(=O)c2ccccc2)CCN1S(=O)(=O)c1cccc(-n2cncn2)c1 (centres unmarked) [Example 114, [3-Methyl-4-(3-[1,2,4]triazol-1-yl-benzenesulfonyl)-piperazin-1-yl]-phenyl-methanone]	< 5.30
CC1CN(C(=O)c2ccccc2)CCN1S(=O)(=O)c1cccc(-n2cccn2)c1 (centres unmarked) [Example 115, [3-Methyl-4-(3-pyrazol-1-yl-benzenesulfonyl)-piperazin-1-yl]-phenyl-methanone]	< 5.30
CC1CN(C(=O)c2ccccc2)CCN1S(=O)(=O)c1ccc(-n2ccnn2)cc1 (centres unmarked) [Example 116, [3-Methyl-4-(4-[1,2,3]triazol-1-yl-benzenesulfonyl)-piperazin-1-yl]-phenyl-methanone]	< 5.30

Compound	pIC50
CC1CN(C(=O)c2ccccc2)CCN1S(=O)(=O)c1ccc(-n2nccn2)cc1 (centres unmarked) [Example 117, [3-methyl-4-(4-[1,2,3]triazol-2-yl-benzenesulfonyl)-piperazin-1-yl]-phenyl-methanone]	< 5.30
CC1CN(C(=O)c2ccccc2)CCN1S(=O)(=O)c1ccc(-n2cncn2)cc1 (centres unmarked) [Example 118, [3-Methyl-4-(4-[1,2,4]triazol-1-yl-benzenesulfonyl)-piperazin-1-yl]-phenyl-methanone]	< 5.30
CC1CN(C(=O)c2ccccc2)CCN1S(=O)(=O)c1ccc(-n2cccn2)cc1 (centres unmarked) [Example 119, [3-Methyl-4-(4-pyrazol-1-yl-benzenesulfonyl)-piperazin-1-yl]-phenyl-methanone]	< 5.30
C[C@@H]1CN(C(=O)c2ccccc2)CCN1S(=O)(=O)c1ccc(-c2c[nH]nn2)cc1 [Example 120, {(R)-3-Methyl-4-[4-(1H-[1,2,3]triazol-4-yl)-benzenesulfonyl]-piperazin-1-yl)-phenyl-methanone]	> 5.30
CC(C)Cn1cc(-c2ccc(S(=O)(=O)N3CCN(C(=O)c4ccccc4)C[C@H]3C)cc2)nn1 [Example 121, {(R)-4-[4-(1-Isobutyl-1H-[1,2,3]triazol-4-yl)-benzenesulfonyl]-3-methyl-piperazin-1-yl}-phenyl-methanone]	< 5.30
C[C@@H]1CN(C(=O)c2ccccc2)CCN1S(=O)(=O)c1ccc(-c2cn(Cc3ccccc3)nn2)cc1 [Example 122, [(R)-4-[4-(1-Benzyl-1H-[1,2,3]triazol-4-yl)-benzenesulfonyl]-3-methyl-piperazine-1-yl}-phenyl-methanone]	< 5.30
CC(=O)c1ccc(-n2cc(-c3ccc(S(=O)(=O)N4CCN(C(=O)c5ccccc5)C[C@H]4C)cc3)nn2)cc1 [Example 123]	< 5.30
C[C@@H]1CN(C(=O)c2ccccc2)CCN1S(=O)(=O)c1ccc(-c2cc(-c3ccccc3)no2)cc1 [Example 124, {(R)-3-Methyl-4-[4-(3-phenyl-isoxazol-5-yl)-benzenesulfonyl]-piperazin-yl}-phenyl-methanone]	< 5.30
C[C@@H]1CN(C(=O)c2ccccc2)CCN1S(=O)(=O)c1ccc(-c2c[nH]nn2)s1 [Example 125, {(R)-3-Methyl-4-[5-(1H-[1,2,3]triazol-4-yl)-thiophene-2-sulfonyl]-piperazin-1-yl}-phenyl-methanone]	< 5.30
C[C@@H]1CN(C(=O)c2ccccc2)CCN1S(=O)(=O)c1ccc(-c2cn(Cc3ccccc3)nn2)s1 [Example 127, {(R)-4-[5-(1-Benzyl-1H-[1,2,3]triazol-4-yl)-thiophene-2-sulfonyl]-3-methyl-piperazin-1-yl}-phenyl-methanone]	< 5.30
CC(=O)c1ccc(-n2cc(-c3ccc(S(=O)(=O)N4CCN(C(=O)c5ccccc5)C[C@H]4C)s3)nn2)cc1 [Example 128]	< 5.30
Cc1c[nH]c(-n2cc(-c3ccc(S(=O)(=O)N4CCN(C(=O)c5ccccc5)C[C@H]4C)s3)nn2)n1 [Example 129, ((R)-3-Methyl-4-{5-[1-(4-methyl-1H-imidazol-2-yl)-1H-[1,2,3]triazol-4-yl]-thiophene-2-sulfonyl}-piperazin-1-yl)-phenyl-methanone]	< 5.30
CCOC(=O)c1sc(SC)nc1-n1cc(-c2ccc(S(=O)(=O)N3CCN(C(=O)c4ccccc4)C[C@H]3C)s2)nn1 [Example 130, 4-{4-[5-((R)-4-Benzoyl-2-methyl-piperazine-1-sulfonyl)-thiophen-2-yl]-[1,2,3]triazol-1-yl}-2-methylsulfanyl-thiazole-5-carboxylic acid ethyl ester]	< 5.30
C[C@@H]1CN(C(=O)c2ccccc2)CCN1S(=O)(=O)c1ccc(-c2cc(-c3ccccc3)no2)s1 [Example 131, {(R)-3-Methyl-4-[5-(3-phenyl-sioxazol-5-yl)-thiophene-2-sulfonyl]-piperazin-1-yl}-phenyl-methanone]	< 5.30
C[C@@H]1CN(C(=O)c2ccccc2)CCN1S(=O)(=O)c1ccc(-c2cc(C(=O)c3ccc(Cl)cc3)no2)s1 [Example 132, ((R)-4-{5-[3-(4-Chloro-benzoyl)-isoxazol-5-yl]-thiophene-2-sulfonyl}-3-methyl-piperazin-1-yl)-phenyl-methanone]	< 5.30
C[C@@H]1CN(C(=O)c2ccccc2)CCN1S(=O)(=O)c1ccc(-n2cccn2)cc1 [Example 133, [(R)-3-methyl-4-(4-pyrazole-1-yl-benzenesulfonyl)-piperazin-1-yl]-phenyl-methanone]	< 5.30
